According to patent US3987028A, “Antibiotic 20,798 R.P” (Rhone-Poulenc S.A., priority 1968, dated 1976):
≈ marks a conversion by molar mass, not a printed value. Counter-ions that a name gives are not always drawn.

Assays:
[1] = solubility; assay type: physicochemical
[2] = tested on: Bacillus subtilis (ATCC 6633); assay type: cell-based; details: ATCC6633, read-out: Minimal inhibitory concentration
Description: (§1) The bacteriostatic activity of 20,798 R.P. was determined by one of the dilution methods usually employed for this purpose. For each microorganism the minimum concentration of antibiotic, which under specified conditions inhibits all visible development of the microorganism in an appropriate nutrient medium, was determined. The results of the various determinations are collected in Table III below, in which the minimum bacteriostatic concentrations are expressed in micrograms of substance per cc. of test medium.

[3] = tested on: Diplococcus pneumoniae (strain Til, Institut Pasteur); assay type: cell-based; details: Streptococcus pneumoniae, read-out: Minimal inhibitory concentration
Description: as §1

[4] = tested on: Klebsiella pneumoniae ATCC 10,031; assay type: cell-based; details: read-out: Minimal inhibitory concentration
Description: as §1

[5] = tested on: Lactobacillus casei ATCC 7469; assay type: cell-based; details: Lacticaseibacillus casei, ATCC7469, read-out: Minimal inhibitory concentration
Description: as §1

[6] = tested on: Mycobacterium para-smegmatis (A 75, Lausanne); assay type: cell-based; details: read-out: Minimal inhibitory concentration
Description: as §1

[7] = tested on: Mycobacterium phlei (Bacteriological Institute of Lyon); assay type: cell-based; details: Mycolicibacterium phlei, read-out: Minimal inhibitory concentration
Description: as §1

[8] = tested on: Mycobacterium smegmatis ATCC 607; assay type: cell-based; details: Mycolicibacterium smegmatis, ATCC607, read-out: Minimal inhibitory concentration
Description: as §1

[9] = tested on: Neisseria catarrhalis A 152; assay type: cell-based; details: A152, read-out: Minimal inhibitory concentration
Description: as §1

[10] = tested on: Pasteurella multocida (A 125, Institut Pasteur); assay type: cell-based; details: read-out: Minimal inhibitory concentration
Description: as §1

[11] = tested on: Proteus X 19; assay type: cell-based; details: read-out: Minimal inhibitory concentration
Description: as §1

[12] = tested on: Salmonella paratyphi A (Lacasse, Institut Pasteur); assay type: cell-based; details: Salmonella enterica, read-out: Minimal inhibitory concentration
Description: as §1

[13] = tested on: Sarcina lutea ATCC 9341; assay type: cell-based; details: Micrococcus luteus, ATCC9341, read-out: Minimal inhibitory concentration
Description: as §1

[14] = tested on: Staphylococcus aureus, strain 209 P ATCC 6538 P; assay type: cell-based; details: ATCC6538; Staphylococcus aureus 209 P ATCC 6538 P; read-out: Minimal inhibitory concentration
Description: as §1

[15] = tested on: Streptococcus faecalis (Faculty of Pharmacy, Paris); assay type: cell-based; details: Enterococcus faecalis, read-out: Minimal inhibitory concentration
Description: as §1

[16] = tested on: Streptococcus pyogenes hemolyticus (strain Dig. 7, Institut Pasteur); assay type: cell-based; details: read-out: Minimal inhibitory concentration
Description: as §1

[17] = tested on: Brucella bronchiseptica (CN 387 - Wellcome Institute); test: microbe, parasite or virus in culture; assay type: cell-based; details: Bordetella bronchiseptica, read-out: Minimal inhibitory concentration
[18] = toxicity on mice (LD50); details: mouse, in vivo, ip, intra-peritoneal (i.p.), read-out: 50% lethal dose (LD50)
Description: The toxicity of 20,798 R.P. has been studied principally on mice. The 50% lethal dose or LD50 was determined intra-peritoneally: […]

[19] = stability to acid treatment of the fermentation broth; assay type: physicochemical; details: 10° to 75° C., 48 hours to 30 minutes
Description: When desired, the fermentation broth can, before the extraction procedures, be treated with an acid at a temperature between 10° and 75° C. for a period of from 48 hours to 30 minutes, the length of time varying inversely with the temperature, so as to enrich the antibiotic 9865 R.P. with daunorubicin. […] For acidification of the fermentation broth inorganic acids (hydrochloric, phosphoric or sulphuric acid) or organic acids (acetic or oxalic acid etc.) are suitable at various concentrations, but preferably hydrochloric acid or oxalic acid is used at concentrations of between 0.01N and 1N. The hydrolysis is preferably carried out for a period of from 15 hours to 1 hour at a temperature of from 20° C. to 50° C., the length of time varying inversely with the temperature.

[20] = tested on: sarcoma 180; test: anti-tumor activity in mice, sarcoma 180
[21] = tested on: leucaemia L 1210; test: anti-tumor activity in mice, leucaemia L 1210

Question: For `COc1cccc2c1C(=O)c1c(O)c3c(c(O)c1C2=O)CC(O)(C(C)O)CC3OC1CC(N)C(O)C(C)O1` (stereo not shown) [20,798 R.P. hydrochloride], which Solubility ([1]; alcohols) is on record?
Answer: soluble

Question: What about the Solubility ([1]; benzene) of the same compound?
Answer: practically insoluble

Question: What about the Solubility ([1]; chloroform) of the same compound?
Answer: sparingly soluble

Question: What about the Solubility ([1]; diethyl ether) of the same compound?
Answer: practically insoluble

Question: And the Solubility ([1]; water)?
Answer: soluble

Question: For `COc1cccc2c1C(=O)c1c(O)c3c(c(O)c1C2=O)CC(O)(C(C)O)CC3O` (stereo not shown) [aglycone of 20,798 R.P.], which Solubility ([1]; benzene) is on record?
Answer: very sparingly soluble

Question: And the Solubility ([1]; chloroform)?
Answer: sparingly soluble

Question: What about the Solubility ([1]; diethyl ether) of the same compound?
Answer: practically insoluble

Question: And the Solubility ([1]; ethyl acetate)?
Answer: sparingly soluble

Question: And the Solubility ([1]; hexane)?
Answer: practically insoluble

Question: And the Solubility ([1]; methanol)?
Answer: sparingly soluble

Question: And the Solubility ([1]; water)?
Answer: practically insoluble

Question: For `COc1cccc2c1C(=O)c1c(O)c3c(c(O)c1C2=O)CC(O)(C(C)O)CC3OC1CC(N)C(O)C(C)O1` (stereo not shown) [20,798 R.P.], which MIC [2] is on record?
Answer: 21 µg/mL (≈ 39.7 µM)

Question: What about the MIC [3] of the same compound?
Answer: 6.1 µg/mL (≈ 11.5 µM)

Question: What about the MIC [4] of the same compound?
Answer: > 330 µg/mL

Question: And the MIC [5]?
Answer: 24 µg/mL (≈ 45.3 µM)

Question: What about the MIC [6] of the same compound?
Answer: 3.1 µg/mL (≈ 5.85 µM)

Question: What about the MIC [7] of the same compound?
Answer: 3.1 µg/mL (≈ 5.85 µM)

Question: And the MIC [8]?
Answer: 5.8 µg/mL (≈ 11 µM)

Question: And the MIC [9]?
Answer: > 28 µg/mL

Question: And the MIC [10]?
Answer: 14 µg/mL (≈ 26.4 µM)

Question: And the MIC [11]?
Answer: > 83 µg/mL

Question: What about the MIC [12] of the same compound?
Answer: > 83 µg/mL

Question: What about the MIC [13] of the same compound?
Answer: 12 µg/mL (≈ 22.7 µM)

Question: What about the MIC [14] of the same compound?
Answer: 100 µg/mL (≈ 189 µM)

Question: What about the MIC [15] of the same compound?
Answer: > 33 µg/mL

Question: What about the MIC [16] of the same compound?
Answer: 11 µg/mL (≈ 20.8 µM)

Question: And the MIC [17]?
Answer: 170 µg/mL (≈ 321 µM)

Question: And the LD50 [18]?
Answer: 6.5 mg/kg

Question: What about the “hydrolysis under acid treatment” value [19] of the same compound?
Answer: not hydrolysed

Question: And the ED50 ([20]; Mus musculus, Sarcoma-180, sc, read-out: 50% active dose (AD50))?
Answer: 0.75 mg/kg

Question: What about the anti-tumor activity ([20]; graftable tumours of mice, solid form of sarcoma 180) of the same compound?
Answer: particularly active

Question: What about the ED50 ([21]; Mus musculus, L1210, ip, read-out: 50% active dose (AD50)) of the same compound?
Answer: 0.8 mg/kg

Question: And the anti-tumor activity ([21]; graftable tumours of mice, leucaemia L 1210)?
Answer: particularly active
